Experiments:
[1] = molecular target: T1, extracellular TG2 in human HK-2 cells (Homo sapiens, UniProt P21980); assay: Extracellular TG activity in HK-2 cells, biotin cadaverine incorporation into fibronectin (Example 1); format: cell-based; conditions: 400 μM of the site-specific pan TG inhibitor 1,3-Dimethyl-2-[(2-oxo-propyl)thio]imidazolium chloride
T1 construct: endogenous in cells; host or cells: HK-2 (kidney proximal tubular epithelium)
T1 sequence (P21980 1-687): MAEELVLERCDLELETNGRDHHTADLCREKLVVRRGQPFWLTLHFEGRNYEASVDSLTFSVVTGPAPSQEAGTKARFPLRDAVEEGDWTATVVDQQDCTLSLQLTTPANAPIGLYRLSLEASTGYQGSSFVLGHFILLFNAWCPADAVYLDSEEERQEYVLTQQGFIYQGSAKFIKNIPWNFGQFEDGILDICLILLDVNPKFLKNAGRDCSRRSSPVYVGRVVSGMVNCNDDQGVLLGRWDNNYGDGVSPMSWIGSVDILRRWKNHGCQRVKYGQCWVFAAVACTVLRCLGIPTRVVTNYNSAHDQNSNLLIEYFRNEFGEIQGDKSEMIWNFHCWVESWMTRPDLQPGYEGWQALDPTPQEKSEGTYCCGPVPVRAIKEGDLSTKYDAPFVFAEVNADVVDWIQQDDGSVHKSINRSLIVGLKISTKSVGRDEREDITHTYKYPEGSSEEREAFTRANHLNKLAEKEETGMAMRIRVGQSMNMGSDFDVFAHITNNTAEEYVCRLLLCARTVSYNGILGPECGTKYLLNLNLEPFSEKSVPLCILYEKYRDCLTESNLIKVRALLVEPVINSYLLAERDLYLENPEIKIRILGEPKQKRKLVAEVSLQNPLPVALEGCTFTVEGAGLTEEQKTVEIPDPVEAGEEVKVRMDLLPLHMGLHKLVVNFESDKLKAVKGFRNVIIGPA
Experimental: HK2 cells were plated onto fibronectin and incubated for 2 hours in the presence of 0.1M biotin cadaverine with either 4 ng/μl of human anti-TG2 antibody (AB1) (part A), 4 ng/μl of human anti-TG2 antibody (DC1) (part B) or 400 μM of the site-specific pan TG inhibitor 1,3-Dimethyl-2-[(2-oxo-propyl)thio]imidazolium chloride. […] Changes in optical density were measured at 450 nm in a 96 well plate reader. Data represents mean OD at 450 nm corrected to 1 mg of cell protein. n=6 wells per experimental group.
Extracellular TG activity was measured by modified cell ELISA. HK-2 epithelial cells were harvested using 0.1M EDTA or 0.25% trypsin/EDTA and plated at a density of 8×10^4 cells/well in serum free medium onto a 96 well plate that had been coated overnight with 100 μl/well of fibronectin (5 μg/ml in 50 mM Tris-HCl pH 7.4) (Sigma, Poole UK). Cells were allowed to attach for 2.5 h at 37° C. in the presence of the 0.1 mM biotin cadaverine [N-(5 amino pentyl biotinamide) trifluoroacetic acid] (Molecular Probes, Eugene Oreg., USA). Plates were washed twice with 3 mM EDTA/PBS and cells removed with 0.1% (w/v) deoxycholate in 5 mM EDTA/PBS. The supernatant was collected and used for protein determination. […] The reaction was stopped with 50 μl 2.5 M H2SO4 and the absorbance read at 450 nm.

WI-38 cells = assay: Scratch wound assay in WI-38 cells; format: cell-based, human; conditions: serum free media; Cytochalasin D 0.1 μM, R281 100 μM, Z DON 10 μM and 100 μM, Cub7402 5 μg/ml
Experimental: WI-38 cells (normal human lung fibroblasts ATCC cat#CCL-75) were plated in a 96 well Image Lock plate (Essen cat#4379) at 2×10^4/well in αMEM media (Life Technologies cat#32561) with 10% FBS and grown O/N to >97% confluence. Cells were washed 2× with αMEM media without serum and a scratch wound was generated using an Essen Wound Maker and the manufacturers protocol. The media was removed and replaced with 95 μl/well serum free media. Controls and test antibodies were added to the wells. The plate was placed in an Essen Incucyte and the closure of the wound was analysed using the scratch wound protocol.
Cytochalasin D was used as an assay control at 0.1 μM. R281, a small molecule non-specific transglutaminase inhibitor, was tested at 100 μM. Z DON, a peptide non reversible transglutaminase inhibitor was tested at 10 μM and 100 μM. The commercially available TG2 antibody Cub7402 (ABcam cat#ab2386) was tested at 5 μg/ml. Antibodies of the invention were tested on at least three occasions at various concentrations as indicated. In all experiments controls were Cytochalasin D at 0.1 uM and ZDON at two concentrations to show a dose dependant effect.

In the case of CC(=O)CSc1n(C)cc[n+]1C.[Cl-] [1,3-Dimethyl-2-[(2-oxo-propyl)thio]imidazolium chloride, reference compound], the “inhibition of extracellular TG activity relative to AB1 and DC1” value [1] is reported as “comparable”.

In the case of C=C1[C@@H](C)[C@H]2[C@H](Cc3ccccc3)NC(=O)[C@]23[C@H](OC(C)=O)/C=C/[C@@](C)(O)C(=O)[C@@H](C)C/C=C/[C@H]3[C@@H]1O [Cytochalasin D, reference compound], the “effect on wound closure” value (WI-38 cells) is reported as “inhibited wound closure”.
